Results reported in paper PMC4311240, “Rationally Designed Peptidomimetic Modulators of Aβ Toxicity in Alzheimer's Disease” (Scientific Reports, 2015).
Non-standard residues stand in square brackets, D forms with d. Residues, ends and D or L forms follow the SMILES beside them. *: point of attachment. Acetyl(thymin-1-yl) = Cc1cn(CC(=O)*)c(=O)[nH]c1=O; Sar = CNCC(=O)O

Assays:
Serum stability assay = assay type: in vitro ADME; settings: 37°C; for half-life at 50 μM: n = 3; for serum half-life compared to P1: human blood serum, 50 μM; for remaining at 24 h, 50 μM: n = 3, read-out: peptide intact after 24 h in serum
Protocol: The impact of N-terminal modification (P2 and P3) and Sr (N-methylglycine) substitution (P4 and P5) in P1 were investigated for their proteolytic stability towards blood plasma proteases. The assay involved the incubation of peptides (50 μM) with blood serum at 37°C for a period of 24 h and assessing the amount of intact peptides at different time points (0, 3, 6, 12 and 24 h) using RP-HPLC. […] Remarkably, P4 and P5 were very stable towards blood plasma proteases in comparison to the other peptides (P1, P2 and P3). […] Proteolytic enzymes generally recognize the specific amide bond between the natural amino acids and cleave them. […] On the other hand, P4 and P5 with an unnatural amino acid (Sr: N-methylglycine) in alternate positions were not recognized by the blood plasma proteases, resulting in their high blood plasma protease stability.
Figure 6 Serum stability of inhibitors. Inhibitors (50 μM) (P1-P5)were incubated in human blood serum (HBS) and were analyzed at different time points over a duration of 24 h to determine the percentage of intact inhibitor. […] Each experiment was repeated three times (n = 3). Error bars represent the standard deviation (SD) of the […] measurement.
Human blood serum (HBS) was used to determine serum stability of the inhibitors. The HBS was centrifuged to remove the lipid component, and the supernatant was incubated at 37°C. 50 Μm of each inhibitor (P1, P2, P3, P4 and P5) was incubated in HBS and then 40 μL triplicate aliquots were removed at 0, 1, 3, 6, 10, 16, and 24 h. Each serum sample was quenched with 40 μL of 6 M urea and incubated at 4°C for 10 min. Then, each serum sample was quenched with 40 μL of trichloroacetic acid (20%) and incubated for another 10 min at 4°C to precipitate the serum proteins. The samples were centrifuged for 10 min, and […] of the supernatant was analyzed on RP-HPLC using a linear gradient of solvent B (0.3 mL/min flow rate). The control samples containing equivalent amounts of inhibitors in PBS buffer were subjected to the same treatment procedure. The percentage recovery of inhibitors was detected by integration at 254 nm[45].

trypsin = test: Protease stability assay, trypsin; assay type: in vitro ADME; settings: 100 mM NH4HCO3 buffer pH 8, 50 μM, 37°C; for stability towards trypsin: 24 h, RP-HPLC; for remaining at 24 h, 50 μM: RP-HPLC at 254 nm, triplicates, read-out: peptidomimetic intact after 24 h with trypsin
Protocol: (§1) Enzymes trypsin and pepsin are well-known to cleave the C-terminal of lysine and amide bond involving aromatic amino acids, respectively. Peptides were incubated with both the enzymes at 37°C for 24 h, and the amount of the residual intact peptide was monitored in each case at different time points (0, 3, 6, 12 and 24 h) using RP-HPLC. […] Overall, the stability assays with blood plasma and proteolytic enzymes led to similar conclusions and confirmed the stability, order P5>P4≫P3≈P2>P1.
(§2) Preliminary stability assays were performed using the enzymes pepsin and trypsin. For all assays, peptides were incubated with the enzyme at 37°C for 24 h. All digestion assay data were analyzed by RP-HPLC. Trypsin and pepsin stocks were prepared in 100 mM ammonium bicarbonate (NH4HCO3) buffer (pH 8) and 100 mM formic acid buffer (pH 2), respectively. All the peptides/peptidomimetics (P1, P2, P3, P4 and P5) were incubated with trypsin and pepsin enzymes in 100 mM NH4HCO3 buffer (pH 8) and formic acid buffer (pH 2), respectively, at 37°C. The trypsin reactions were halted with 0.05% formic acid, and the pepsin reactions were halted with 100 mM NH4HCO3. Then the samples were analyzed by RP-HPLC using a linear gradient of solvent B (0.3 mL/min flow rate); similar data points were collected at various time points between 0 and 24 h (1 h, 3 h, 6 h, 12 h and 24 h) during incubation and analyzed in triplicates. The percentages of recovered peptide/peptidomimetics were detected by integration at 254 nm[46].
(§3) Figure S6. Stability towards protease enzymes pepsin and trypsin. P1, P2, P3, P4 and P5 ([…]) were incubated in with enzymes pepsin a and trypsin b in 100 mM formic acid buffer (pH 2) and 100 mM NH4HCO3 buffer (pH 8) respectively. Percentage of intact peptide in each case was monitored at different time points for a duration of 24 h. P1, P2 and P3 degraded with time, […]
(§4) (1 picture or pasted object on this page, not shown here)

[1] = target: T1, Aβ42 fibrillar aggregates (Homo sapiens, UniProt P05067); test: ThT fluorescence reversal (dissolution) assay of preformed Aβ42 fibrillar aggregates; assay type: biochemical; settings: n = 3; for dissolution efficiency, fibril reversal assay (ThT): Aβ42 fibrillar aggregates grown for 2 days, 20 μM, 1:2 stoichiometry, day 6, 37°C; for dissolution efficiency, time-dependent reversal ThT assay: Aβ42 aggregates 20 μM, 1:2, 37°C
T1 construct: Aβ42 peptide (0.25 mg) (Calbiochem, Merck) was dissolved in hexafluoro-2-propanol; purchased Calbiochem, Merck
T1 sequence (P05067 672-713 limits assumed): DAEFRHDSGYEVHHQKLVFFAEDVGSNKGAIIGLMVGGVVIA
Protocol: (§5) ThT assay has been widely used to monitor the transformation of Aβ42 monomers to fibrillar aggregates. We employed ThT assay to evaluate the ability of our peptidomimetic candidates to either prevent fibril assembly (inhibition) or to break down preformed fibrils of Aβ42 (dissolution). For the inhibition assay all the peptidomimetics (P2, P3, P4 and P5) along with control peptide P1 were added at 0 h of the experiment, whereas for the aggregates reversal (dissolution) assay they were added to Aβ42 fibrillar aggregates grown for 2 days. Once they had been incubated together, Aβ42/inhibitors were analyzed using ThT by measuring the fluorescence changes. First, we performed concentration-dependent experiments where different ratios of P1, P2, P3, P4 and P5 were incubated with fixed concentrations of Aβ42 (20 μM) and its aggregates to study their effect on both inhibition and reversal assay, respectively. Experiments were performed at stoichiometric ratios (Aβ42/inhibitor) of 1:0.2, 1:1, and 1:2 with the fixed concentration of Aβ42 of 20 μM. […] However, the efficiencies of P4 and P5 were only marginally better in inhibition assay compared to reversal assay with a difference of about 15%.
Aβ42 peptide (0.25 mg) (Calbiochem, Merck) was dissolved in hexafluoro-2-propanol (HFIP, 0.2 mL) and incubated at room temperature for 1 h. HFIP was then removed by the flow of nitrogen and further dried under vacuum. HFIP-treated Aβ42 was then dissolved in 10 mM PBS buffer to a concentration of 200 μM at pH 7.4. The solution was incubated at 37°C for 48 h with constant shaking for fibril formation. The formation of Aβ42 fibrillar aggregates was confirmed by ThT fluorescence, CD measurements and electron microscopy. For oligomers, HFIP-treated Aβ42 dissolved in 10 mM PBS buffer and incubated at 4°C for 24 h[44].
(§6) Fluorescence spectral measurements were carried out using Perkin Elmer Model LS 55 fluorescence spectrophotometer. […] A ThT concentration of 5–10 µM was used for amyloid fibrillization and dissolution assay based on the Aβ42 fibrillar concentration.
(§7) Prior to the experiment, P1, P2, P3, P4 and P5 were dissolved in HFIP and were evaporated under a stream of dry nitrogen. The dried samples were re-suspended in 10 mM PBS buffer at pH 7.4. An aliquot of Aβ42 peptide was then added to the solution with or without one of the inhibitor P1, P2, P3, P4 and P5. The mixtures were vortexed for approximately 30 s and then incubated at 37°C for 2–3 days without shaking. The final concentration of Aβ42 in the mixture was 20 μΜ. For a dissolution experiment, Aβ42 was incubated alone for 2 days to allow fibrils to form. An aliquot of the formed fibrils in 10 mM PBS buffer was then added to the inhibitor peptidomimetics. The amount of fibrils remaining intact was assayed using that fluorescence, CD measurements and transmission electron microscopy as described below.

Aβ42 [2] = target: T2, Aβ42 (Homo sapiens, UniProt P05067); test: ThT fluorescence inhibition assay of Aβ42 fibrillization; assay type: biochemical; settings: for growth phase of Aβ42 fibrillization, time-dependent ThT assay / inhibition efficiency, time-dependent ThT assay: 1:2, 37°C, n = 3; for growth phase of Aβ42 fibrillization, time-dependent ThT assay: normalized fluorescence at 485 nm
T2 construct: Aβ42 peptide (0.25 mg) (Calbiochem, Merck) was dissolved in hexafluoro-2-propanol; purchased Calbiochem, Merck
T2 sequence (P05067 672-713 limits assumed): as above
Protocol: as §5, §6, §7

pepsin = test: Protease stability assay, pepsin; assay type: in vitro ADME; settings: 100 mM formic acid buffer pH 2, 50 μM, 37°C; for stability towards pepsin: 24 h, RP-HPLC; for remaining at 24 h, 50 μM: RP-HPLC at 254 nm, triplicates, read-out: peptidomimetic intact after 24 h with pepsin
Protocol: as §1, §2, §3, §4

Aβ42 aggregates = target: T3, Aβ42 aggregates (Homo sapiens, UniProt P05067); test: CD measurement, reversal assay (β-sheet band at 218 nm); assay type: biochemical; settings: Aβ42 aggregates 20 μM, inhibitor 40 μM, six days at 37°C
T3 construct: Aβ42 peptide (0.25 mg) (Calbiochem, Merck) was dissolved in hexafluoro-2-propanol; purchased Calbiochem, Merck
T3 sequence (P05067 672-713 limits assumed): as above
Source text: (§8) To further validate our results, we performed CD studies. Aβ42 aggregates are predominantly made of β-sheet assembly, which can be assessed by CD measurements. […] In this assay, we monitored the intensity of negative CD band centered at 218 nm, characteristic of a β-sheet structure and a decrease in its intensity was correlated with a reduction in the toxic Aβ42 aggregates (supplementary Fig. S2). In these CD measurements, samples similar to ThT fluorescence assays were used to allow for direct comparison between the two experiments. In the case of inhibition assay, Aβ42 monomers were incubated with inhibitor candidates for 4 days at 37°C and then CD measurements were performed to evaluate the inhibition efficiency. […] In the reversal assay, Aβ42 aggregates were incubated with the inhibitor candidates for six days at 37°C and then, CD measurements were performed. CD data was in excellent agreement with the dissolution efficiency obtained in reversal assay experiments monitored by the ThT assay (Fig. 2). […] Overall, inhibition and dissolution efficiencies obtained in the ThT fluorescence assay and CD measurements were in good agreement.
(§9) The circular dichroic (CD) spectra were recorded using a Jasco J-815 spectrometer under nitrogen atmosphere. Peptides were dissolved in 10 mM PBS buffer at pH 7.4 at concentrations of 20 µM. A 10 mm path length was used for the measurements. Four to five scans were acquired from 200 to 300 nm.
as §7

Aβ42 [3] = target: T2, Aβ42; test: CD measurement, inhibition assay (β-sheet band at 218 nm); assay type: biochemical; settings: read-out: reduction in CD intensity at 218 nm (β-sheet content), inhibition assay
Source text: as §8, §9, §7

[4] = human blood serum (centrifuged to remove lipid), 24 h, RP-HPLC at 254 nm
[5] = Aβ42 20 μM, Aβ42:inhibitor 1:2 (40 μM), inhibitor added at 0 h, four days at 37°C, 10 mM PBS pH 7.4, n = 3, read-out: inhibition efficiency (reduction in the fluorescence intensity of ThT)
[6] = Aβ42 20 μM, inhibitor 40 μM, 4 days at 37°C, vs untreated Aβ42

Compound | half-life at 50 μM (Serum stability assay; [4]) [min] | metabolised at 24 h, 50 μM (Serum stability assay; human blood serum (centrifuged to remove lipid), 24 h, RP-HPLC at 254 nm, n = 3, read-out: peptide degraded at 24 h in serum) [%] | stability towards trypsin (trypsin) | dissolution efficiency, fibril reversal assay (ThT) [1] [%] | inhibition at 40 µM (Aβ42 [2]; [5]) [%] | stability towards pepsin (pepsin) | dissolution efficiency by CD, reversal assay (Aβ42 aggregates) [%] | serum half-life compared to P1 (Serum stability assay) [times] | dissolution efficiency, time-dependent reversal ThT assay [1] [%] | inhibition at 40 µM (Aβ42 [3]; [6]) [%] | growth phase of Aβ42 fibrillization, time-dependent ThT assay (Aβ42 [2]; Aβ42 20 μM) [%] | inhibition at 40 µM (Aβ42 [3]) [%] | inhibition at 40 µM (Aβ42 [2]; pH 7.4, read-out: inhibition efficiency (reduction in the fluorescence intensity of ThT)) [%] | remaining at 24 h, 50 μM (Serum stability assay; [4]) [%] | remaining at 24 h, 50 μM (trypsin) [%] | inhibition efficiency, time-dependent ThT assay (Aβ42 [2]; Aβ42 20 μM) [%] | remaining at 24 h, 50 μM (pepsin) [%]
CC(C)C[C@H](NC(=O)[C@@H](N)CCCCN)C(=O)N[C@H](C(=O)N[C@@H](Cc1ccccc1)C(=O)N[C@@H](Cc1ccccc1)C(N)=O)C(C)C [P1, reference compound] | ~180 | 80 | less stable | 20 | 20 | less stable |  |  |  |  |  |  |  |  |  |  | 
Cc1cn(CC(=O)N[C@@H](CCCCN)C(=O)N[C@@H](CC(C)C)C(=O)N[C@H](C(=O)N[C@@H](Cc2ccccc2)C(=O)N[C@@H](Cc2ccccc2)C(N)=O)C(C)C)c(=O)[nH]c1=O [P2] | ~600 |  | less stable | 45 | 55 | less stable | 40 | 3 | 35 | > 50 | < 60 |  |  |  |  |  | 
CC(C)C[C@H](NC(=O)[C@H](CCCCN)NC(=O)CC1C(=O)NC(=O)NC1=O)C(=O)N[C@H](C(=O)N[C@@H](Cc1ccccc1)C(=O)N[C@@H](Cc1ccccc1)C(N)=O)C(C)C [P3] | ~600 |  | less stable | 34 |  | less stable | 25 | 3 | 25 |  | < 60 | ~30 | 40 |  |  |  | 
Cc1cn(CC(=O)N(C)CC(=O)N[C@@H](CC(C)C)C(=O)N(C)CC(=O)N[C@@H](Cc2ccccc2)C(=O)N(C)CC(=O)N[C@@H](C)C(N)=O)c(=O)[nH]c1=O [P4] ({Acetyl(thymin-1-yl)}-[Sar]L[Sar]F[Sar]A-NH2) |  |  |  | 80 | ≤ 95 |  | > 75 |  | 68 | > 80 |  |  |  | > 90 | > 90 | > 90 | > 90
Cc1cn(CC(=O)N[C@@H](CCCCN)C(=O)N(C)CC(=O)N[C@H](C(=O)N(C)CC(=O)N[C@@H](Cc2ccccc2)C(=O)N(C)CC(N)=O)C(C)C)c(=O)[nH]c1=O [P5] ({Acetyl(thymin-1-yl)}-K[Sar]V[Sar]F[Sar]-NH2) |  |  |  | 80 | ≤ 95 |  | > 75 |  | 75 | > 80 |  |  |  | > 90 | > 90 | > 90 | > 90
